Measured values as given in patent publication US20240228489A1, “POSITIVE ALLOSTERIC MODULATORS OF THE MUSCARINIC ACETYLCHOLINE RECEPTOR M1” (Vanderbilt University, priority 2021, published 2024).

What was measured:
human mAChR M1 [1] = target: T1, human mAChR M1 (Homo sapiens, UniProt P11229); test: mAChR M1 cell-based functional assay (calcium mobilization), agonist mode: compound alone, Emax relative to acetylcholine maximum; details: for EC50 / Agonist Activity Human M1 EC50: human mAChR M1; for Emax: relative to the maximum for acetylcholine
T1 sequence (P11229 1-460): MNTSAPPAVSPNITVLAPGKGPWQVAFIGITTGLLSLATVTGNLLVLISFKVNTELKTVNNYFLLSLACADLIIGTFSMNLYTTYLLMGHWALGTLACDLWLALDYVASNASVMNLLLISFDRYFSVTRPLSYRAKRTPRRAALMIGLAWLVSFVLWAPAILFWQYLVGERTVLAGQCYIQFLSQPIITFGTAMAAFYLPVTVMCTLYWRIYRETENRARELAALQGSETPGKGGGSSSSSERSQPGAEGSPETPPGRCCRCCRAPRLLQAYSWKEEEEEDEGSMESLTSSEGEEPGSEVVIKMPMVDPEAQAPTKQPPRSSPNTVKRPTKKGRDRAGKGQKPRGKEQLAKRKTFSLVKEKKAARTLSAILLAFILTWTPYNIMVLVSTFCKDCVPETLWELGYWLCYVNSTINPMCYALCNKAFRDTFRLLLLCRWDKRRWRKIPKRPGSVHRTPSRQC
Summary of the method: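 Agonist activity is the concentration-dependent rise in intracellular calcium (Fluo-4, 1 Hz read) after compound addition, measured before any acetylcholine was added, in stable hM1 CHO-K1 cells. Curves were 11-point, 1:3 dilutions fitted by four-parameter logistic. Emax is given as a fraction of maximal acetylcholine response.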

human mAChR M1 [2] = target: T1, human mAChR M1; test: mAChR M1 cell-based functional assay (calcium mobilization), PAM mode: increase in the EC20 acetylcholine response
Summary of the method: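 PAM readout is the concentration-dependent rise in the EC20 acetylcholine calcium signal, fitted to a four-parameter logistic (EC50, Emax). Compounds were preincubated from 4 s before ACh at 144 s (EC20) and 230 s (EC80). hM1-expressing CHO-K1 cells loaded with Fluo-4, FDSS ratio read.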

Row | Structure (SMILES) | EC50 (human mAChR M1 [1]) | Emax (human mAChR M1 [1]) | EC50 (human mAChR M1 [2]) | Emax (human mAChR M1 [2]) | Agonist Activity Human M1 EC50 (human mAChR M1 [1])
1 | [2H]C1([2H])c2ncccc2C(=O)N1Cc1c(C)cc(-c2ccc(C)c3nn(C([2H])([2H])[2H])cc23)cc1F [Compound 157, 6-(2-fluoro-6-methyl-4-(7-methyl-2-(methyl-d3)-2H-indazol-4-yl)benzyl)-6,7-dihydro-5H-pyrrolo[3,4-b]pyridin-5-one-7,7-d2] | ≥ 10000 nM | 16% | 456 nM | 81% | 
2 | [2H]C1([2H])c2ncccc2C(=O)N1Cc1ccc(-c2ccc3c(cnn3C)c2)cc1 [Compound 237, 6-(4-(1-methyl-1H-indazol-5-yl)benzyl)-6,7-dihydro-5H-pyrrolo[3,4-b]pyridin-5-one-7,7-d2] |  | 2% | > 10000 nM | 47% | Inactive
3 | [2H]C1([2H])c2ncccc2C(=O)N1Cc1ccc(-c2ccc3cncn3c2)cc1 [Compound 18, 6-(4-(imidazo[1,5-a]pyridin-6-yl)benzyl)-6,7-dihydro-5H-pyrrolo[3,4-b]pyridin-5-one-7,7-d2] |  | 2% | 4170 nM | 65% | Inactive
4 | [2H]C1([2H])c2ncccc2C(=O)N1Cc1c(F)cc(-c2ccc(OC)c3n[nH]cc23)cc1F [Compound 38, 6-(2,6-difluoro-4-(7-methoxy-2H-indazol-4-yl)benzyl)-6,7-dihydro-5H-pyrrolo[3,4-b]pyridin-5-one-7,7-d2] | > 10000 nM | 2% | 436 nM | 69% | 
5 | [2H]C1([2H])c2ncccc2C(=O)N1Cc1c(F)cc(-c2ccc(OCC3CCCO3)c3nn(C)cc23)cc1F (stereo not shown) [Compound 134, 6-(2,6-difluoro-4-(2-methyl-7-((tetrahydrofuran-2-yl)methoxy)-2H-indazol-4-yl)benzyl)-6,7-dihydro-5H-pyrrolo[3,4-b]pyridin-5-one-7,7-d2] | ≥ 10000 nM | 23% | 701 nM | 75% | 
6 | [2H]C1([2H])c2ncccc2C(=O)N1Cc1c(F)cc(-c2cc3cn(C)nc3cc2C)cc1F [Compound 6, 6-(4-(2,6-dimethyl-2H-indazol-5-yl)-2,6-difluorobenzyl)-6,7-dihydro-5H-pyrrolo[3,4-b]pyridin-5-one-7,7-d2] |  | 7% | 4090 nM | 48% | Inactive
7 | [2H]C1([2H])c2ncccc2C(=O)N1Cc1ccc(-c2cc(F)cc3nn(C)cc23)cc1C [Compound 84, 6-(4-(6-fluoro-2-methyl-2H-indazol-4-yl)-2-methylbenzyl)-6,7-dihydro-5H-pyrrolo[3,4-b]pyridin-5-one-7,7-d2] |  | 2% | 1240 nM | 74% | Inactive
8 | [2H]C1([2H])c2ncccc2C(=O)N1Cc1c(F)cc(-c2cccc3nn(C)cc23)cc1N(C)C [Compound 229, 6-(2-(dimethylamino)-6-fluoro-4-(2-methyl-2H-indazol-4-yl)benzyl)-6,7-dihydro-5H-pyrrolo[3,4-b]pyridin-5-one-7,7-d2] |  | 4% | ≥ 10000 nM | 42% | Inactive
9 | [2H]C1([2H])c2ncccc2C(=O)N1Cc1c(F)cc(-c2ccc(C(F)(F)F)c3nn(C)cc23)cc1C1CC1 [Compound 207, 6-(2-cyclopropyl-6-fluoro-4-(2-methyl-7-(trifluoromethyl)-2H-indazol-4-yl)benzyl)-6,7-dihydro-5H-pyrrolo[3,4-b]pyridin-5-one-7,7-d2] | 8070 nM | 25% | 673 nM | 84% | 
10 | [2H]C1([2H])c2ncccc2C(=O)N1Cc1c(F)cc(-c2ccc(OCc3ccccc3)c3nn(C)cc23)cc1F [Compound 129, 6-(4-(7-(benzyloxy)-2-methyl-2H-indazol-4-yl)-2,6-difluorobenzyl)-6,7-dihydro-5H-pyrrolo[3,4-b]pyridin-5-one-7,7-d2] |  | 1% | 1760 nM | 65% | Inactive
11 | [2H]C1([2H])c2ncccc2C(=O)N1Cc1ccc(-c2cnc3nn(C)cc3c2)cc1 [Compound 13, 6-(4-(2-methyl-2H-pyrazolo[3,4-b]pyridin-5-yl)benzyl)-6,7-dihydro-5H-pyrrolo[3,4-b]pyridin-5-one-7,7-d2] |  | 3% | 5190 nM | 75% | Inactive
12 | [2H]C1([2H])c2ncccc2C(=O)N1Cc1ccc(-c2ccc(OCC3CCO3)c3nn(C)cc23)cc1F (stereo not shown) [Compound 145, 6-(2-fluoro-4-(2-methyl-7-(oxetan-2-ylmethoxy)-2H-indazol-4-yl)benzyl)-6,7-dihydro-5H-pyrrolo[3,4-b]pyridin-5-one-7,7-d2] | ≥ 10000 nM | 16% | 1070 nM | 73% | 
13 | [2H]C1([2H])c2ncccc2C(=O)N1Cc1ccc(-c2ccc(C)c3nn(C)cc23)cc1C [Compound 30, 6-(4-(2,7-dimethyl-2H-indazol-4-yl)-2-methylbenzyl)-6,7-dihydro-5H-pyrrolo[3,4-b]pyridin-5-one-7,7-d2] | > 10000 nM | 22% | 1090 nM | 79% | 

The next compounds have a lower EC50 (human mAChR M1 [2]) than those just listed; values first:

Row | EC50 (human mAChR M1 [1]) | Emax (human mAChR M1 [1]) | EC50 (human mAChR M1 [2]) | Emax (human mAChR M1 [2]) | Agonist Activity Human M1 EC50 (human mAChR M1 [1]) | Structure (SMILES)
14 | > 10000 nM | 28% | 413 nM | 78% |  | [2H]C1([2H])c2ncccc2C(=O)N1Cc1c(F)cc(-c2cccc3nn(CF)cc23)cc1F [Compound 44, 6-(2,6-difluoro-4-(2-(fluoromethyl)-2H-indazol-4-yl)benzyl)-6,7-dihydro-5H-pyrrolo[3,4-b]pyridin-5-one-7,7-d2]
15 |  | 6% | 382 nM | 80% | Inactive | [2H]C1([2H])c2ncccc2C(=O)N1Cc1c(C)cc(-c2ccc(F)c3nn(C([2H])([2H])[2H])cc23)cc1F [Compound 158, 6-(2-fluoro-4-(7-fluoro-2-(methyl-d3)-2H-indazol-4-yl)-6-methylbenzyl)-6,7-dihydro-5H-pyrrolo[3,4-b]pyridin-5-one-7,7-d2]
16 |  | 1% | 380 nM | 60% | Inactive | [2H]C1([2H])c2ncccc2C(=O)N1Cc1c(Cl)cc(-c2cccc3nn(C([2H])([2H])[2H])cc23)cc1Cl [Compound 228, 6-(2,6-dichloro-4-(2-(methyl--d3)-2H-indazol-4-yl)benzyl)-6,7-dihydro-5H-pyrrolo[3,4-b]pyridin-5-one-7,7-d2]
17 | 8270 nM | 32% | 243 nM | 74% |  | [2H]C1([2H])c2ncccc2C(=O)N1Cc1c(F)cc(-c2ccc(OC3CC3)c3nn(C)cc23)cc1F [Compound 124, 6-(4-(7-cyclopropoxy-2-methyl-2H-indazol-4-yl)-2,6-difluorobenzyl)-6,7-dihydro-5H-pyrrolo[3,4-b]pyridin-5-one-7,7-d2]
18 |  | 2% | 237 nM | 46% | Inactive | [2H]C1([2H])c2ncccc2C(=O)N1Cc1c(F)cc(-c2cc(F)cc3nn(C([2H])([2H])[2H])cc23)cc1F [Compound 86, 6-(2,6-difluoro-4-(6-fluoro-2-(methyl-d3)-2H-indazol-4-yl)benzyl)-6,7-dihydro-5H-pyrrolo[3,4-b]pyridin-5-one-7,7-d2]
19 | 3730 nM | 43% | 198 nM | 79% |  | [2H]C1([2H])c2ncccc2C(=O)N1Cc1c(C)cc(-c2ccc(OC)c3nn(C)cc23)cc1F [Compound 195, 6-(2-fluoro-4-(7-methoxy-2-methyl-2H-indazol-4-yl)-6-methylbenzyl)-6,7-dihydro-5H-pyrrolo[3,4-b]pyridin-5-one-7,7-d2]
20 | 5870 nM | 41% | 188 nM | 75% |  | [2H]C1([2H])c2ncccc2C(=O)N1Cc1c(F)cc(-c2ccc(OCCOC)c3nn(C)cc23)cc1F [Compound 113, 6-(2,6-difluoro-4-(7-(2-methoxyethoxy)-2-methyl-2H-indazol-4-yl)benzyl)-6,7-dihydro-5H-pyrrolo[3,4-b]pyridin-5-one-7,7-d2]
21 |  | 2% | 161 nM | 65% | Inactive | [2H]C([2H])([2H])Oc1cnc2c(c1)C(=O)N(Cc1ccc(-c3ccc4nn(C)cc4c3)cc1F)C2([2H])[2H] [Compound 111, 6-(2-fluoro-4-(2-methyl-2H-indazol-5-yl)benzyl)-3-(methoxy-d3)-6,7-dihydro-5H-pyrrolo[3,4-b]pyridin-5-one-7,7-d2]
22 | 5960 nM | 44% | 137 nM | 84% |  | [2H]C1([2H])c2ncccc2C(=O)N1Cc1c(F)cc(-c2cccc3nn(C)cc23)cc1C1CC1 [Compound 192, 6-(2-cyclopropyl-6-fluoro-4-(2-methyl-2H-indazol-4-yl)benzyl)-6,7-dihydro-5H-pyrrolo[3,4-b]pyridin-5-one-7,7-d2]
